Test results taken from US20240327334A1, “Covalent Inhibitors As Antiviral Agents” (Enanta Pharmaceuticals, Inc., priority 2022, published 2024).
Read-outs that look alike come from different tables or passages of the source.

What was measured:
SARS-CoV-2 replicon = experiment: microbe, parasite or virus in culture; assay type: cell-based; settings: Severe acute respiratory syndrome coronavirus 2, Huh-7
SARS-CoV-2 USA-WA1/2020 = experiment: microbe, parasite or virus in culture; assay type: cell-based; settings: read-out: SARS-CoV-2 BSL3 EC50
[1] = molecular target: SARS-CoV-2 Papain-like (PLpro) protease (Severe acute respiratory syndrome coronavirus 2, UniProt P0DTD1); experiment: SARS-CoV-2 Papain-like (PLpro) protease biochemical enzyme inhibition assay (ubiquitin-fluorophore substrate, Ub-R110); settings: Ub-R110 substrate; run in duplicate; read-out: PLpro IC50
[2] = Severe acute respiratory syndrome coronavirus 2, 144 h, Vero 76 cells, SARS-CoV-2 USA-WA1/2020, neutral red, day 6

SMILES | EC50 (SARS-CoV-2 replicon) [nM] | EC50 (SARS-CoV-2 USA-WA1/2020; [2]) [nM] | IC50 [1] [nM] | EC50 (SARS-CoV-2 USA-WA1/2020; Severe acute respiratory syndrome coronavirus 2, Vero 76, 144 h) [nM]
O=C(NCC#CC(=O)N1CC2CC2C1)C(=O)NCc1ccccc1C(=O)NC1(c2ccc3ccccc3c2)CC1 (stereo not shown) [Example 527] | < 1000 | < 1000 | < 100 | –
O=C(NCC#CC(=O)N1CC(F)(F)C1)C(=O)NCc1ccccc1C(=O)NC1(c2ccc3ccccc3c2)CC1 [Example 535] | < 1000 | 1000 to 10000 | < 100 | –
C#CCNC(=O)C(=O)NCc1ccc(-c2ccn(C(F)F)n2)cc1C(=O)NC1(c2ccc(F)c3ccccc23)CC1 [Example 126] | < 1000 | < 1000 | < 100 | –
O=C(C#CCNC(=O)C(=O)NCc1ccccc1C(=O)NC1(c2cccc3ccccc23)CC1)NC1CC1 [Example 518] | < 1000 | < 1000 | < 100 | –
COC(=O)/C=C/CCNC(=O)C(=O)NCc1ccccc1C(=O)NC1(c2cccc3ccccc23)CC1 [Example 3] | < 1000 | < 1000 | < 100 | –
COC(=O)/C=C/CNC(=O)C(=O)NCc1ccccc1C(=O)N[C@H](C)c1cccc2ccccc12 [Example 2] | < 1000 | < 1000 | < 100 | –
O=C(NCC#CC(=O)N1CC(F)(F)C1)C(=O)NCc1ccccc1C(=O)NC1(c2cccc3ccccc23)CC1 [Example 529] | < 1000 | < 1000 | < 100 | –
O=C(NCC#CC(=O)N1CC2CC2C1)C(=O)NCc1ccccc1C(=O)NC1(c2cccc3ccccc23)CC1 (stereo not shown) [Example 528] | < 1000 | < 1000 | < 100 | –
N#CCNC(=O)C(=O)NCc1ccccc1C(=O)NC1(c2cc(Cl)cc(-c3cccs3)c2)CC1 [Example 457, N1-(2-((1-(3-chloro-5-(thiophen-2-yl)phenyl)cyclopropyl)carbamoyl)benzyl)-N2-(cyanomethyl)oxalamide] | 1000 to 10000 | – | < 100 | 1000 to 10000
N#CCNC(=O)C(=O)NCc1ccc(-c2ccn(C(F)F)n2)cc1C(=O)NC1(c2ccc(F)c3ccccc23)CC1 [Example 125] | 1000 to 10000 | < 1000 | < 100 | –
O=C(C#CCNC(=O)C(=O)NCc1ccccc1C(=O)NC1(c2cccc3ccccc23)CC1)N[C@]12C[C@](C(F)(F)F)(C1)C2 [Example 525] | < 1000 | 1000 to 10000 | < 100 | –
O=C(C#CCNC(=O)C(=O)NCc1ccccc1C(=O)NC1(c2ccc3ccccc3c2)CC1)NC1CC1 [Example 536] | < 1000 | < 1000 | < 100 | –
N#CCNC(=O)C(=O)NCc1ccccc1C(=O)NC1(c2cccc3ccccc23)CC1 [Example 25] | < 1000 | – | < 100 | –
C#C[C@H](C)NC(=O)C(=O)NCc1ccccc1C(=O)NC1(c2cccc3ccccc23)CC1 [Example 156] | < 1000 | – | < 100 | –
O=C(NC/C=C/C(=O)N1CCCC1)C(=O)NCc1ccccc1C(=O)NC1(c2cccc3ccccc23)CC1 [Example 557] | 1000 to 10000 | – | < 100 | –
O=C(NCC#Cc1ccc(Cl)nn1)C(=O)NCc1ccccc1C(=O)NC1(c2ccc3ccccc3c2)CC1 [Example 199] | < 1000 | – | < 100 | –
O=C(NCC#Cc1nccs1)C(=O)NCc1ccccc1C(=O)NC1(c2cc(F)cc(-c3cnn(C(F)F)c3)c2)CC1 [Example 81] | < 1000 | – | < 100 | –
N#CN1CC(C(=O)NCc2ccccc2C(=O)NC2(c3cccc4ccccc34)CC2)C1 [Example 114] | < 1000 | – | < 100 | –
C[C@@H](C#Cc1nccs1)NC(=O)C(=O)NCc1ccccc1C(=O)NC1(c2ccc3nn(C)cc3c2)CC1 [Example 184] | < 1000 | – | < 100 | –
O=C(NCC#Cc1ncc(F)cc1F)C(=O)NCc1ccccc1C(=O)NC1(c2ccc3ccccc3c2)CC1 [Example 188] | < 1000 | – | < 100 | –

SMILES | EC50 (SARS-CoV-2 replicon) [nM] | EC50 (SARS-CoV-2 USA-WA1/2020; [2]) [nM] | IC50 [1] [nM] | EC50 (SARS-CoV-2 USA-WA1/2020; Severe acute respiratory syndrome coronavirus 2, Vero 76, 144 h) [nM]
N#CCNC(=O)C(=O)NCc1ccccc1C(=O)NC1(c2cc(N3CC(O)C3)cc3ccccc23)CC1 [Example 330] | 1000 to 10000 | – | < 100 | –
COC(=O)/C=C/CNC(=O)C(=O)NCc1ccccc1C(=O)N[C@H](C)c1cc(-c2cccs2)cc(C(F)(F)F)c1 [Example 461] | < 1000 | – | < 100 | –
C[C@@H](C#Cc1ccc(C#N)cc1F)NC(=O)C(=O)NCc1ccccc1C(=O)NC1(c2ccc3nn(C)cc3c2)CC1 [Example 98] | < 1000 | – | < 100 | –
C[C@@H](NC(=O)c1ccccc1CNC(=O)C(=O)NCC#N)c1cc(-c2cccs2)cc(C(F)(F)F)c1 [Example 460] | < 1000 | – | < 100 | –
COC(=O)/C=C/CCNC(=O)C(=O)NCc1ccccc1C(=O)N[C@H](C)c1cccc2ccccc12 [Example 1] | < 1000 | < 1000 | < 100 | –
C#CCNC(=O)C(=O)NCc1ccccc1C(=O)NC1(c2cc(Cl)cc(-c3cncs3)c2)CC1 [Example 447] | < 1000 | – | < 100 | –
N#CCNC(=O)C(=O)NCc1ccccc1C(=O)NC1(c2cccc3c(C#N)cccc23)CC1 [Example 308] | < 1000 | – | < 100 | –
C#CCNC(=O)C(=O)NCc1ccccc1C(=O)NC1(c2ccc(F)c(-c3cnn(C4CC4)c3)c2)CC1 [Example 225] | < 1000 | – | < 100 | –
N#CCNC(=O)C(=O)NCc1ccccc1C(=O)NC1(c2ccc(F)c(Br)c2)CC1 [Example 217] | > 10000 | – | 100 to 1000 | –
N#CCNC(=O)C(=O)NCc1ccccc1C(=O)NC1(c2cc(Cl)cc(-c3cnco3)c2)CC1 [Example 451] | 1000 to 10000 | – | < 100 | –
O=C(/C=C/CNC(=O)C(=O)NCc1ccccc1C(=O)NC1(c2cccc3ccccc23)CC1)NC1CC1 [Example 541] | > 10000 | – | 100 to 1000 | –
N#CCNC(=O)C(=O)NCc1ccccc1C(=O)NC1(c2cc(Cl)cc(-c3cncs3)c2)CC1 [Example 448] | 1000 to 10000 | – | < 100 | –
C#CCNC(=O)C(=O)NCc1ccccc1C(=O)NC1(c2cc(Cl)cc(C(=O)N(C)c3ccc(F)cc3)c2)CC1 [Example 77] | 1000 to 10000 | – | < 100 | –
COC(=O)Cn1cc(-c2cc(C3(NC(=O)c4ccccc4CNC(=O)C(=O)NCC#N)CC3)c3ccccc3c2)nn1 [Example 426] | 1000 to 10000 | – | < 100 | –
O=C(NCC#Cc1cnc(C(F)(F)F)nc1)C(=O)NCc1ccccc1C(=O)NC1(c2ccc3ccccc3c2)CC1 [Example 181] | < 1000 | – | < 100 | –
O=C(C#CCNC(=O)C(=O)NCc1ccccc1C(=O)NC1(c2ccc3ccccc3c2)CC1)N[C@]12C[C@](C(F)(F)F)(C1)C2 [Example 537] | < 1000 | < 1000 | < 100 | –
O=C(NCC#Cc1ncc(F)cn1)C(=O)NCc1ccccc1C(=O)NC1(c2cc(F)cc(-c3cnn(C4CC4)c3)c2)CC1 [Example 248] | < 1000 | – | < 100 | –
Cc1nn(C)cc1-c1cc(C2(NC(=O)c3ccccc3CNC(=O)C(=O)NCC#N)CC2)ccc1F [Example 236] | > 10000 | – | 100 to 1000 | –
C#CCNC(=O)C(=O)NCc1ccccc1C(=O)NC1(c2ccc(OC)c(-c3cnn(C4CC4)c3)c2)CC1 [Example 245] | < 1000 | – | < 100 | –
Cn1cnc(C#CCNC(=O)C(=O)NCc2ccccc2C(=O)NC2(c3ccc4ccccc4c3)CC2)n1 [Example 398] | < 1000 | – | < 100 | –
